The source of these data is patent US8829029B2, “Dual modulators of 5HT2A and D3 receptors” (Hoffmann-La Roche Inc., priority 2008, dated 2014).

In assay [1] the target is human 5-HT2A serotonin receptor (Homo sapiens (Human), UniProt P28223). Kind of assay: Radioligand binding ([3H]-ketanserin) to cloned human 5-HT2A receptor expressed in HEK-293 EBNA cells. The note with it: membranes of transfected HEK-293 EBNA cells, 1.1 nM [3H]-ketanserin, 1 h at RT. As for the experimental part: The ability of the compounds to bind to the 5-HT2A, D3 and D2 receptors was determined using radioligand binding to cloned receptors selectively expressed in HEK-293 EBNA cells.
(§1) HEK-293 EBNA cells were transiently transfected with expression plasmids encoding for the human D2 or D3 dopamine- or for the human 5-HT2A serotonin receptor, respectively. The cells were harvested 48 h post-transfection, washed three times with cold PBS and stored at −80° C. prior to use. The pellet was suspended in cold 50 mM Tris-HCl buffer containing 10 mM EDTA (pH 7.4) and homogenized with a Polytron (Kinematica AG, Basel, Switzerland) for 20-30 sec at 12,000 rpm. After centrifugation at 48,000×g for 30 min at 4° C., the pellet was resuspended in cold 10 mM Tris-HCl buffer containing 0.1 mM EDTA (pH 7.4), homogenized, and centrifuged as above. This pellet was further resuspended in a smaller volume of ice cold 10 mM Tris-HCl buffer containing 0.1 mM EDTA (pH 7.4) and homogenized with a Polytron for 20-30 sec at 12,000 rpm. The protein content of this homogenate was determined with the Bio-Rad (Bradford) Protein Assay (Biorad Laboratories GmbH, München, Germany) according to the instructions of the manufacturer using gamma globulin as the standard. This homogenate was stored at −80° C. in aliquots and thawed immediately prior to use.
Aliquots of membrane preparations were thawed at RT, resuspended in assay buffer (D2, D3: 50 mM Tris-HCl, 120 mM NaCl, 5 mM MgCl2, 1 mM EDTA, 5 mM KCl, 1.5 mM CaCl2, pH=7.4; 5-HT2A: 50 mM Tris-HCl, 10 mM MgCl2, 1 mM EGTA, pH=7.4), homogenized with a Polytron for 20-30 sec at 12,000 rpm and adjusted to a final concentration of approximately 7.5 μg protein/well (D2, D3) and 15 μg protein/well (5-HT2A), respectively.
(§2) The binding affinity (Ki) of the compounds was determined using radioligand binding. Membranes were incubated in a total volume of 200 μl with a fixed concentration of radioligand (final concentration approximately 0.7 nM [^3H]-spiperone for D2, 0.5 nM [^3H]-spiperone for D3, and 1.1 nM [^3H]-ketanserin for 5-HT2A) and ten concentrations of test compound in ranging between 10 μM-0.1 nM for 1 h at RT. At the end of the incubation, the reaction mixtures were filtered on to unifilter 96-well white microplates with bonded GF/C filters (Packard BioScience, Zürich, Switzerland; preincubated for 1 h in 0.1% polyethylenimine (PEI) in assay buffer) with a Filtermate 196 harvester (Packard BioScience) and washed 3 times with cold assay buffer. The nonspecific binding was determined with equally composed reaction mixtures in the presence of 10 μM unlabelled spiperone. Per well 45 μl of Microscint 40 (Perkin Elmer, Schwerzenbach, Switzerland) was added, plates for sealed, shaken for 20 min and counted for 3 min on a Topcount Microplate Scintillation Counter (Canberra Packard SA, Zürich, Switzerland) with quenching correction.
(§3) The CPM value for each duplicate of a concentration of competing compound was averaged (y1), then the % specific binding was calculated according to the equation (((y1−non-specific)/(total binding−non-specific))×100). Graphs were plotted with the % specific binding using XLfit, a curve fitting program that iteratively plots the data using Levenburg Marquardt algorithm. The single site competition analysis equation used was y=A+((B−A)/(1+((x/C)^D))), where y is the % specific binding, A is the minimum y, B is the maximum y, C is the IC50, x is the log10 of the concentration of the competing compound and D is the slope of the curve (the Hill Coefficient). From these curves the IC50 (inhibition concentration at which 50% specific binding of the radioligand was displaced) and Hill coefficient were determined. The affinity constant (Ki) was calculated using the Cheng-Prusoff equation Ki=(IC50/1+([L]/Kd), where [L] is the concentration of radioligand and Kd is the dissociation constant of the radioligand at the receptor as determined by the saturation isotherm.

Assay [2] concerns the target human D3 dopamine receptor (Homo sapiens (Human), UniProt P35462). Kind of assay: Radioligand binding ([3H]-spiperone) to cloned human D3 receptor expressed in HEK-293 EBNA cells. The note with it: membranes of transfected HEK-293 EBNA cells, 0.5 nM [3H]-spiperone, 1 h at RT. As for the experimental part:
as §1, with “The pellet was suspended in cold 50 mM Tris-HCl buffer containing 10 mM EDTA (pH 7.4) and homogenized with a Polytron (Kinematica AG, Basel, Switzerland) for 20-30 sec at 12,000 rpm.” left out, “This pellet was further resuspended in a smaller volume of ice cold 10 mM Tris-HCl buffer containing 0.1 mM EDTA (pH 7.4) and homogenized with a Polytron for 20-30 sec at 12,000 rpm.” left out
as §2, §3

Chain of human D3 dopamine receptor (P35462 whole entry): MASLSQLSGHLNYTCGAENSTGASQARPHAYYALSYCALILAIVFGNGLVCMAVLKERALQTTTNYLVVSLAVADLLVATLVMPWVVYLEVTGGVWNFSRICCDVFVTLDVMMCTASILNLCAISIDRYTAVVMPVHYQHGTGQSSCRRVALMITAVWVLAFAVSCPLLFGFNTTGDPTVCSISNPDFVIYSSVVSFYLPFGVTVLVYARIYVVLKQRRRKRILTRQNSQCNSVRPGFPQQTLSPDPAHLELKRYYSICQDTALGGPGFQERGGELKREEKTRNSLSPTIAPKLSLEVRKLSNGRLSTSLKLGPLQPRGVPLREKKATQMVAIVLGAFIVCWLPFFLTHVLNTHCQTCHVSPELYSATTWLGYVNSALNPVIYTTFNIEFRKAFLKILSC

On to `CC(=O)N[C@H]1CC[C@H](CCN2CCC(c3noc4cc(F)ccc34)CC2)CC1` [Example 1, 4N-trans(4-{2-[4-(6-Fluoro-benzo[d]isoxazol-3-yl)-piperidin-1-yl]-ethyl}-cyclohexyl)-acetamide], for which the Ki (as a rule, the equilibrium dissociation constant of an inhibitor or competing ligand from its target) in assay [1] was 2.22 nM; in assay [2], 4.96 nM.
The corresponding values for `O=C(N[C@H]1CC[C@H](CCN2CCC(c3noc4cc(F)ccc34)CC2)CC1)C1CCOCC1` [Example 2, Tetrahydro-pyran-4-carboxylic acid trans(4-{2-[4-(6-fluoro-benzo[d]isoxazol-3-yl)-piperidin-1-yl]-ethyl}-cyclohexyl)-amide] are 1.74 nM and 9.74 nM.
In the case of `COCCC(=O)N[C@H]1CC[C@H](CCN2CCC(c3noc4cc(F)ccc34)CC2)CC1` [Example 3, N-trans (4-{2-[4-(6-Fluoro-benzo[d]isoxazol-3-yl)-piperidin-1-yl]-ethyl}-cyclohexyl)-3-methoxy-propionamide], the inhibition constant (Ki) in assay [1] was determined as 1.81 nM; in assay [2], 4.75 nM.
Regarding `O=C(N[C@H]1CC[C@H](CCN2CCC(c3noc4cc(F)ccc34)CC2)CC1)c1ccc(N2CCOCC2)cc1` [Example 4, N-trans-(4-{2-[4-(6-Fluoro-benzo[d]isoxazol-3-yl)-piperidin-1-yl]-ethyl}-cyclohexyl)-4-morpholin-4-yl-benzamide], the Ki in assay [1] is 9.52 nM.
For the molecule `O=C(N[C@H]1CC[C@H](CCN2CCC(c3noc4cc(F)ccc34)CC2)CC1)c1ccc(N2CCOCC2)nc1` [Example 4A, N-Trans (4-{2-[4-(6-Fluoro-benzo[d]isoxazol-3-yl)-piperidin-1-yl]-ethyl}-cyclohexyl)-6-morpholin-4-yl-nicotinamide], the values for the Ki in assay [1] and in assay [2] were 2.7 nM and 7.95 nM, respectively.
For `O=C(N[C@H]1CC[C@H](CCN2CCC(c3noc4cc(F)ccc34)CC2)CC1)c1cnc(N2CCOCC2)cn1` [Example 4B, 5-Morpholin-4-yl-pyrazine-2-carboxylic acid trans (4-{2-[4-(6-fluoro-benzo[d]isoxazol-3-yl)-piperidin-1-yl]-ethyl}-cyclohexyl)-amide], in that order: 3.81 nM and 19.4 nM.
The corresponding values for `O=C(N[C@H]1CC[C@H](CCN2CCC(c3noc4cc(F)ccc34)CC2)CC1)c1ccc(N2CCOCC2)nn1` [Example 4C, 6-Morpholin-4-yl-pyridazine-3-carboxylic acid-trans (4-{2-[4-(6-fluoro-benzo[d]isoxazol-3-yl)-piperidin-1-yl]-ethyl}-cyclohexyl)-amide] are 3.18 nM and 25.3 nM.
For `O=C(N[C@H]1CC[C@H](CCN2CCC(c3noc4cc(F)ccc34)CC2)CC1)c1cnc(N2CCOCC2)nc1` [Example 4D, 2-Morpholin-4-yl-pyrimidine-5-carboxylic acid trans (4-{2-[4-(6-fluoro-benzo[d]isoxazol-3-yl)-piperidin-1-yl]-ethyl}-cyclohexyl)-amide], in that order: 2.45 nM and 15.3 nM.
Take `O=C(N[C@H]1CC[C@H](CCN2CCC(c3noc4cc(F)ccc34)CC2)CC1)c1ccc(N2CCOCC2)c(F)c1` [Example 5, 3-Fluoro-N-trans (4-{2-[4-(6-fluoro-benzo[d]isoxazol-3-yl)-piperidin-1-yl]-ethyl}-cyclohexyl)-4-morpholin-4-yl-benzamide]: the Ki in assay [1] was determined as 17.5 nM; in assay [2], 45.3 nM.
`CN(C)c1ccc(C(=O)N[C@H]2CC[C@H](CCN3CCC(c4noc5cc(F)ccc45)CC3)CC2)cc1` [Example 6, 4-Dimethylamino-N-trans (4-{2-[4-(6-fluoro-benzo[d]isoxazol-3-yl)-piperidin-1-yl]-ethyl}-cyclohexyl)-benzamide]: the inhibitory constant (Ki) in assay [1] was 11.4 nM; in assay [2], 11.5 nM.
For `O=C(Cc1ccc2c(c1)OCO2)N[C@H]1CC[C@H](CCN2CCC(c3noc4cc(F)ccc34)CC2)CC1` [Example 7, 2-Benzo[1,3]dioxo1-5-yl-N-trans (4-{2-[4-(6-fluoro-benzo[d]isoxazol-3-yl)-piperidin-1-yl]-ethyl}-cyclohexyl)-acetamide], in that order: 2.09 nM and 4.02 nM.
The corresponding values for `COc1ccc(C(=O)N[C@H]2CC[C@H](CCN3CCC(c4noc5cc(F)ccc45)CC3)CC2)cc1` [Example 8, N-trans-(4-{2-[4-(6-Fluoro-benzo[d]isoxazol-3-yl)-piperidin-1-yl]-ethyl}-cyclohexyl)-4-methoxy-benzamide] are 3.65 nM and 4.53 nM.
On to `CC(C)(C)Oc1ccc(C(=O)N[C@H]2CC[C@H](CCN3CCC(c4noc5cc(F)ccc45)CC3)CC2)cc1` [Example 9, 4-tert-Butoxy-N-trans (4-{2-[4-(6-fluoro-benzo[d]isoxazol-3-yl)-piperidin-1-yl]-ethyl}-cyclohexyl)-benzamide], for which the Ki in assay [1] was found to be 1.72 nM; in assay [2], 3.42 nM.
Consider `O=C(N[C@H]1CC[C@H](CCN2CCC(c3noc4cc(F)ccc34)CC2)CC1)c1ccnc(N2CCOCC2)c1` [Example 12, N-trans (4-{2-[4-(6-Fluoro-benzo[d]isoxazol-3-yl)-piperidin-1-yl]-ethyl}-cyclohexyl)-2-morpholin-4-yl-isonicotinamide], for which the Ki in assay [1] is 2.46 nM.
The same measure, in the same setting: then `O=C(N[C@H]1CC[C@H](CCN2CCC(c3noc4ccc(F)cc34)CC2)CC1)c1ccc2c(c1)OCO2` [Example 30, Benzo[1,3]dioxole-5-carboxylic acid trans (4-{2-[4-(5-fluoro-benzo[d]isoxazol-3-yl)-piperidin-1-yl]-ethyl}-cyclohexyl)-amide], with 11.2 nM; and `O=C(CC1CCCCO1)N[C@H]1CC[C@H](CCN2CCC(c3noc4cc(Cl)ccc34)CC2)CC1` (stereo partly drawn) [Example 34, N-trans (4-{2-[4-(6-Chloro-benzo[d]isoxazol-3-yl)-piperidin-1-yl]-ethyl}-cyclohexyl)-2-(tetrahydro-pyran-2-yl)-acetamide], with 5.83 nM.
Same read-out and setting: then `O=C(C[C@@H]1CCCCO1)N[C@H]1CC[C@H](CCN2CCC(c3noc4cc(Cl)ccc34)CC2)CC1` [Example 34A, N-trans (4-{2-[4-(6-Chloro-benzo[d]isoxazol-3-yl)-piperidin-1-yl]-ethyl}-cyclohexyl)-2-(R)-tetrahydro-pyran-2-yl-acetamide], with 13.7 nM.
The same measure, in the same setting: then `O=C(C[C@H]1CCCCO1)N[C@H]1CC[C@H](CCN2CCC(c3noc4cc(Cl)ccc34)CC2)CC1` [Example 34B, N-trans (4-{2-[4-(6-Chloro-benzo[d]isoxazol-3-yl)-piperidin-1-yl]-ethyl}-cyclohexyl)-2-(S)-tetrahydro-pyran-2-yl-acetamide], with 15.3 nM.
